Biological target: T1, Gamma-aminobutyric acid receptor subunit alpha-5 (Homo sapiens, UniProt P31644)
T1 sequence (P31644 whole entry): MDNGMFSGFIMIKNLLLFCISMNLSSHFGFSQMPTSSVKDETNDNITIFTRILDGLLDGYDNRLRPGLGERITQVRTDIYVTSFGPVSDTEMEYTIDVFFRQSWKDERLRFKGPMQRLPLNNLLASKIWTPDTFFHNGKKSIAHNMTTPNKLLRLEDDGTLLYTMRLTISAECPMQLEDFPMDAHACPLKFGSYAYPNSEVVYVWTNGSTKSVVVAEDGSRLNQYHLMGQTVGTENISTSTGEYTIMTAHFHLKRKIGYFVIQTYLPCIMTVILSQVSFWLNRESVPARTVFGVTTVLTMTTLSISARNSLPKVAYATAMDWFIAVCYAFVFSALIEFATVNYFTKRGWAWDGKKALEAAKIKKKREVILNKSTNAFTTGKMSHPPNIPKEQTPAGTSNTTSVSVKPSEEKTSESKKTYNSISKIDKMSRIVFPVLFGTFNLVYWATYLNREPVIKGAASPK
Experiment: Binding Assay
Experimental: Receptor binding assays were performed in 96-well format in deep-well plates. For each 96-well plate one ampulle of membrane homogenate was thawed and diluted in binding buffer (50 mM Tris pH=7.4, 100 mM KCl) and 200 μL was dispensed into each well. Radioligand [3H]Ro151788 (Perkin Elmer: NET757250UC) was prepared in binding buffer and added to each well in 50 μL volume to give final concentration of 0.5 nM. Test compounds in suitable concentration(s) were added in additional 50 μL. The final assay volume was 300 μL. Incubation was carried out for 60 minutes at 4° C. For non-specific binding 10 μM unlabeled diazepam was used. After incubation samples were filtered over UniFilter GF/B™ using Filtermate Harvester (Perkin Elmer) and washed with 5×1 mL binding buffer. The plate was dried at 40° C. for an hour and 40 μL Microscint (Perkin Elmer) scintillation cocktail was added to each well. The plate was read in Microbeta (Perkin Elmer).

Row | Ki [nM] | Structure (SMILES)
1 | 36 | Cc1onc(-c2ccc(F)cc2)c1COc1ccc2c(n1)CCN(C(=O)N1CCCCC1)C2 [US12370182, Example 85]
2 | 31 | Cc1nnn(-c2ccc(F)cc2)c1COc1ccc2c(n1)CN(C(=O)C(F)(F)F)C2 [US12370182, Example 51]

— BindingDB's records for patent US12370182 (Richter Gedeon, 2025)
